From patent publication US12534436B2, “Disubstituted adamantyl derivative or pharmaceutically acceptable salt thereof, and pharmaceutical composition for suppressing cancer growth comprising same as active ingredient” (ONECUREGEN CO., LTD., priority 2020, dated 2026)

System: HIF-1 (HRE-dependent luciferase reporter)
Assay: HRE-luciferase assay, screening of HIF-1 inhibitors in HCT116 cells
Format: cell-based, human
Settings: HCT116 cells stably expressing HRE-dependent luciferase reporter, hypoxic conditions, 12 hours, means of three experiments
Description: HCT116 cells stably expressing the HRE-dependent luciferase reporter were treated with the disubstituted adamantyl derivative prepared in the above example under hypoxic conditions for 12 hours before measuring luciferase activity.
In HCT116 cells treated with disubstituted adamantyl derivatives, luciferase activity was investigated using HRE-luciferase assay. The HRE-luciferase reporter assay was performed as previously described using the luciferase assay system (Promega, Madison, WI, USA) according to the manufacturer's instructions (Naik, R. et al. Synthesis and Structure-Activity Relationship of (E)Phenoxyacrylic Amide Derivatives as Hypoxia-Inducible Factor (HIF) 1α Inhibitors. J. Med. Chem. 55, 10564-1057 (2012)). Luciferase activity was measured using a Victor X light luminescence reader (PerkinElmer, Boston, MA, USA).

Row | SMILES | IC50 (Homo sapiens, HCT-116) | IC50
1 | COC(=O)c1cccc(NC(=O)COc2ccc(C34CC5CC(CC(C(=O)OC)(C5)C3)C4)cc2)c1 [Compound 10a, Methyl-3-(2-(4-(3-((methoxy)carbonyl)adamantane-1-yl)phenoxy)acetamido)benzoate] | 18.3 µM | 
2 | COC(=O)c1cccc(NC(=O)COc2ccc(C34CC5CC(C3)C(C(=O)OCc3ccc(OC)cc3)C(C5)C4)cc2)c1 (stereo not shown) [Compound 10b, Methyl-3-(2-(4-(4-((4-methoxybenzyloxy)carbonyl)adamantane-1-yl)phenoxy)acetamido)benzoate] | > 20 µM | 
3 | COC(=O)c1cccc(NC(=O)COc2ccc(C34CC5CC(C3)C(C(=O)OCc3ccc(OC)c(OC)c3)C(C5)C4)cc2)c1 (stereo not shown) [Compound 10c, Methyl-3-(2-(4-(4-((3,4-dimethoxybenzyloxy)carbonyl)adamantane-1-yl)phenoxy)acetamido)benzoate] | 2.37 µM | 
4 | COC(=O)c1cccc(NC(=O)COc2ccc(C34CC5CC(CC(C5)C3C(=O)OCCc3ccc(OC)c(OC)c3)C4)cc2)c1 (stereo not shown) [Compound 10d, Methyl-3-(2-(4-(2-((3,4-dimethoxyphenethoxy)carbonyl)adamantane-1-yl)phenoxy)acetamido)benzoate] | > 20 µM | 
5 | COC(=O)c1cccc(NC(=O)COc2ccc(C34CC5CC(CC(C(=O)OCc6ccco6)(C5)C3)C4)cc2)c1 [Compound 10e, Methyl-3-(2-(4-(3-((furan-2-ylmethoxy)carbonyl)adamantane-1-yl)phenoxy)acetamido)benzoate] | 6.4 µM | 
6 | CNC(=O)C12CC3CC(C1)CC(c1ccc(OCC(=O)Nc4cccc(C(=O)OC)c4)cc1)(C3)C2 [Compound 10f, Methyl-3-(2-(4-(3-methylcarbamoyl-adamantan-1-yl)phenoxy)acetamido)benzoate] | 16.6 µM | 
7 | COC(=O)c1cccc(NC(=O)COc2ccc(C34CC5CC(CC(C(=O)NCc6ccccc6)(C5)C3)C4)cc2)c1 [Compound 10g, Methyl-3-(2-(4-(3-benzylcarbamoyl-adamantan-1-yl)phenoxy)acetamido)benzoate] | 1.3 µM | 
8 | COC(=O)c1cccc(NC(=O)COc2ccc(C34CC5CC(CC(C(=O)NCc6ccco6)(C5)C3)C4)cc2)c1 [Compound 10h, Methyl-3-(2-(4-(3-(furan-2-ylmethylcarbamoyl)-adamantan-1-yl)phenoxy)acetamido)benzoate] | 3 µM | 
9 | COC(=O)c1cccc(NC(=O)COc2ccc(C34CC5CC(CC(C(=O)Nc6ccccn6)(C5)C3)C4)cc2)c1 [Compound 10i, Methyl-3-(2-(4-(3-(pyridin-2-ylcarbamoyl)-adamantan-1-yl)phenoxy)acetamido)benzoate] | 2.4 µM | 
10 | COC(=O)c1cccc(NC(=O)COc2ccc(C34CC5CC(CC(C(=O)N6CCc7cc(OC)c(OC)cc7C6)(C5)C3)C4)cc2)c1 [Compound 10j, Methyl-3-(2-(4-(3-(6,7-dimethoxy-1,2,3,4-tetrahydroisoquinoline-2-carbonyl)-adamantan-1-yl)phenoxy)acetamido)benzoate] | 1.3 µM | 
11 | COc1ccc(COC(=O)C23CC4CC(CC(C4)C2c2ccc(OCC(=O)Nc4cccc(C(F)(F)F)c4)cc2)C3)cc1OC (stereo not shown) [Compound 14a, 3,4-Dimethoxybenzyl-2-(4-(2-oxo-2-(3-(trifluoromethyl)phenylamino)ethoxy)phenyl) adamantane-1-ylcarboxylae] |  | > 20 µM
12 | COc1ccc(COC(=O)C23CC4CC(CC(C4)C2c2ccc(OCC(=O)Nc4cccc5cccnc45)cc2)C3)cc1OC (stereo not shown) [Compound 14b, 3,4-Dimethoxybenzyl-2-(4-(2-oxo-2-(quinolin-8-ylamino)ethoxy)phenyl) adamantane-1-ylcarboxylate] |  | > 20 µM
13 | COc1ccc(COC(=O)C23CC4CC(CC(C4)C2c2ccc(OCC(=O)NCc4ccco4)cc2)C3)cc1OC (stereo not shown) [Compound 14c, 3,4-Dimethoxybenzyl-2-(4-(2-(furan-2-ylmethylamino)-2-oxoethoxy)phenyl) adamantane-1-ylcarboxylate] |  | 22.5 µM
14 | COc1ccc(COC(=O)C23CC4CC(CC(C4)C2c2ccc(OCC(=O)N4CCN(C)CC4)cc2)C3)cc1OC (stereo not shown) [Compound 14d, 3,4-Dimethoxybenzyl-2-(4-(2-(4-methylpiperazin-1-yl)-2-oxoethoxy)phenyl) adamantane-1-ylcarboxylate] |  | 1.67 µM
15 | CN1CCN(C(=O)COc2ccc(C34CC5CC(CC(C(=O)NCc6ccco6)(C5)C3)C4)cc2)CC1 [Compound 17a, N-(Furan-2-ylmethyl)-5-(4-(2-(4-methylpiperazin-1-yl)-2-oxoethoxy)phenyl) adamantan-1-yl-carboxamide] |  | > 20 µM
16 | CN1CCN(C(=O)COc2ccc(C34CC5CC(CC(C(=O)N6CCN(Cc7ccc(C(F)(F)F)cc7)CC6)(C5)C3)C4)cc2)CC1 [Compound 17b, 1-(4-Methylpiperazin-1-yl)-2-(4-(5-(4-(4-(trifluoromethyl)benzyl)piperazine-1-carbonyl)adamantan-1-yl-)phenoxy) ethanone] |  | 2.19 µM
17 | COc1ccc(CN2CCN(C(=O)C34CC5CC(C3)CC(c3ccc(OCC(=O)N6CCN(C)CC6)cc3)(C5)C4)CC2)cc1 [Compound 17c, 2-(4-(5-(4-(4-Methoxybenzyl)piperazine-1-carbonyl)adamantan-1-yl)phenoxy)-1-(4-methylpiperazin-1-yl) ethanone] | 9.53 µM | 
18 | COc1cc2c(cc1OC)CN(C(=O)C13CC4CC(C1)CC(c1ccc(OCC(=O)N5CCOCC5)cc1)(C4)C3)CC2 [Compound 21a, 2-(4-(3-(6,7-Dimethoxy-1,2,3,4-tetrahydroisoquinoline-2-carbonyl)adamantan-1-yl)phenoxy)-1-morpholinoethanone] | 5.43 µM | 
19 | COc1cc2c(cc1OC)CN(C(=O)C13CC4CC(C1)CC(c1ccc(OCC(=O)N5CCN(C)CC5)cc1)(C4)C3)CC2 [Compound 21b, 2-(4-(3-(6,7-Dimethoxy-1,2,3,4-tetrahydroisoquinoline-2-carbonyl)adamantan-1-yl)phenoxy)-1-(4-methylpiperazin-1-yl) ethanone] | 9.51 µM | 
